Experimental data: ChEMBL document CHEMBL4152186, “Recent advances in the search for novel 5-lipoxygenase inhibitors for the treatment of asthma” (Eur J Med Chem, 2018)

Columns and labels:
[1] = biological target: T1, Polyunsaturated fatty acid 5-lipoxygenase (Homo sapiens, UniProt P09917); assay: Inhibition of 5-LOX (unknown origin)
T1 sequence (P09917 whole entry): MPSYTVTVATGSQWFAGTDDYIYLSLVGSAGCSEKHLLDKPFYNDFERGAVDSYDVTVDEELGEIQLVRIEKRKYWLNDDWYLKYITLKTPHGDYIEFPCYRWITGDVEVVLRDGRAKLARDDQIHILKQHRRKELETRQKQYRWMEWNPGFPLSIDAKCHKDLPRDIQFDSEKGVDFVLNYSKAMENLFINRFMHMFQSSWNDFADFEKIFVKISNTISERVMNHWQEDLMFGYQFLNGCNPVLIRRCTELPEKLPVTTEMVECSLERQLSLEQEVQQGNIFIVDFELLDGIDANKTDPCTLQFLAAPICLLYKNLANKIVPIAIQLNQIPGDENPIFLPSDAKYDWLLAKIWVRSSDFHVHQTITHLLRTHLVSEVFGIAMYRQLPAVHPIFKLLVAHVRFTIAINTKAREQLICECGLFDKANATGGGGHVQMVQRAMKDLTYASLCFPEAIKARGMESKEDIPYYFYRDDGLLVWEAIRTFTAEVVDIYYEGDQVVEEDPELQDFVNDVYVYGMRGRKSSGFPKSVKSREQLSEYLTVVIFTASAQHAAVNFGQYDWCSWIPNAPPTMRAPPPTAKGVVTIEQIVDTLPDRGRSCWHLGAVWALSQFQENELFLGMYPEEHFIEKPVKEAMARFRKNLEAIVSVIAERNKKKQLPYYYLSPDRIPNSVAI

[2] = biological target: T2, Prostaglandin G/H synthase 2 (Homo sapiens, UniProt P35354); assay: Inhibition of COX2 (unknown origin)
T2 sequence (P35354 whole entry): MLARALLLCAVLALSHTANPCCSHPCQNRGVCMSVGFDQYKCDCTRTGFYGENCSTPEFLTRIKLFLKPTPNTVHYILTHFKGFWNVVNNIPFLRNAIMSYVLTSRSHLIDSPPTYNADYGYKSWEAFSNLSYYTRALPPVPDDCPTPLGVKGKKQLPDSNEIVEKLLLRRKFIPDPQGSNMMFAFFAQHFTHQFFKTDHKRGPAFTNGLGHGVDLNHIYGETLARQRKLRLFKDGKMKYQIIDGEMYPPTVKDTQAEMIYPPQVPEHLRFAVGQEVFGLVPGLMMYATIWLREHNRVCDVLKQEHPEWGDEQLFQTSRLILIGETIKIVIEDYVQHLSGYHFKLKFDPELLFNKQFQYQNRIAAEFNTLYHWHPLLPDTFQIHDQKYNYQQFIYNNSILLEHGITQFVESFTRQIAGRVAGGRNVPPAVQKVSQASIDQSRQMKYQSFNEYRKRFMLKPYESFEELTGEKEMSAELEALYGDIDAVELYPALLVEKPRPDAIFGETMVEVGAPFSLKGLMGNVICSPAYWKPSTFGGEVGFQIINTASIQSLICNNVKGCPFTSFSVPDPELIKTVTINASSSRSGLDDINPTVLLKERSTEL

Row | SMILES | IC50 [1] [nM] | IC50 [2] [nM]
1 | O=C(O)c1noc(-c2ccc(OCc3ccc4ccccc4n3)cc2)c1-c1ccc(Cl)cc1 | 65 to 1250 | 
2 | CS(=O)(=O)c1ccc(-c2nc(SCCN(O)C(N)=O)nn2-c2ccc(Br)cc2)cc1 | 850 | 150
3 | Cc1cc(Nc2ncc(-c3ccc(F)cc3)o2)cc(C)c1O | 65 to 1250 | 
4 | CC[C@](O)(c1nnc(NCc2ccc3c(-c4ccc(F)cc4)cc(=O)oc3c2)o1)C(F)(F)F [SETILEUTON] | 65 to 1250 | 
